# Laboratory results: PubChem BioAssay (NCI)
# Values joined by “and” are separate entries in the source; they are usually repeats but may differ in a detail not shown here. Equal values may be shown once.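 These data come from cells grown in 96-well plates and exposed to compound for 48 hours at five concentrations. GI50: concentration for 50% inhibition of growth. TGI denotes the concentration required for complete inhibition of growth.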
# System: RXF-631 renal
# Assay: DTP human tumour cell line panel, 48 h
smiles,measurement,value
COc1cccc2c1C(=O)c1c(O)c3c(c(O)c1C2=O)C[C@@](O)(C(C)=O)C[C@@H]3OC1CC(N)C(O)C(C)O1 (some centres not stated),GI50,0.212 µM
same,TGI,3.12 µM and 4.25 µM
